The source of these data is patent publication US8450305B2, “Macrocyclic compounds useful as inhibitors of kinases and HSP90” (Universite de Strasbourg, priority 2006, dated 2013).

Structures are written as SMILES. Where two headings read alike, the source gives them in different places.

One series has as its system HCC1954 tumor cells. Description: Cytotoxicity, MTS assay, HCC1954. The series is classed as cell-based. To be noted: Homo sapiens, 72 hours. How it is done:
(§1) Tumor cells were grown as adherent monolayers at 37° C. in a humidified atmosphere (5% CO2, 95% air). The culture medium was RPMI 1640 containing 2 mM L-glutamine (Ref BE12-702F, Cambrex, Verviers, Belgium) and supplemented with 10% fetal bovine serum (Ref DE14-801E, Cambrex). For experimental use, the adherent tumour cells were detached from the culture flask by a 5-minute treatment with trypsin-versene (Ref O2-007E, Cambrex), diluted in Hanks' medium without calcium or magnesium (Ref BE10-543F, Cambrex) and neutralized by addition of complete culture medium. Before use, cells were counted in a hemocytometer and their viability were assessed by 0.25% trypan blue exclusion. Mycoplasma detection was performed using the MycoAlert® Mycoplasma Detection Kit (Ref LT07-318, Cambrex) in accordance with the manufacturer instructions. The MycoAlert®Assay is a selective biochemical test that exploits the activity of mycoplasmal enzymes. The viable mycoplasma are lysed and the enzymes react with the MycoAlert® substrate catalyzing the conversion of ADP to ATP. By measuring the level of ATP in a sample both before and after the addition of the MycoAlert® substrate a ratio can be obtained which is indicative of the presence or absence of mycoplasma. The mycoplasma test was assayed in duplicate from the culture supernatants of the cell lines and compared to negative and positive controls (MycoAlert® Assay Control Set, Ref LT07-518, Cambrex) (Internal Standard Operating Procedure No TEC-007/002). Both HCC1954 and SK-BR-3 tumour cells (5,000 cells per well) were plated in 96-well flat-bottom microtitration plates (Ref 167008, Nunc, Dutscher, Brumath, France) and incubated at 37° C. for 24 hours before treatment in 190 μl of drug-free culture medium supplemented with 10% FBS. Both HCC1954 and SK-BR-3 tumour cell lines were incubated for 72 hours with […], in ¼ dilution steps, of the test substances (ranging from […]) to be tested as well as paclitaxel (ranging from 10^−7 to 10^−12 M). The cells (190 μl) will be incubated in a 200 μl final volume of culture medium supplemented with 10% FBS containing test substances at 37° C. under 5% CO2. One experiment is performed, each concentration being issued from quadruplicate. Control cells are treated with corresponding vehicle alone. At the end of treatments, the cytotoxic activity is evaluated by a MTS assay. […] Like MTT, MTS is bioreduced by cells into a formazan product that is directly soluble in culture medium without processing, unlike MTT.
(§2) At the end of the cells treatment, 40 μl of a 0.22 μm filtered freshly combined solution of MTS (20 ml at 2 mg/ml, Ref G1111A, Promega, Charbonnières, France) and PMS (1 ml at 0.92 mg/ml, Ref P9625, Sigma) in Dulbecco's Phosphate Buffered Saline (DPBS, Ref 17-513F, Cambrex), were added in each well. Culture plates were incubated for 2 h at 37° C. Absorbency (OD) will be measured at 490 nm in each well using VICTOR^3™ 1420 multilabeled counter (Wallac, PerkinElmer, Courtaboeuf, France).

Another series relates to HCC1954 cells. Nature of the series: Antitumor activity, HCC1954 induced tumors in CB17/SCID mice. In kind it is in vivo. On the procedure:
The compounds of the invention were evaluated for antitumor activity in mice. Tumors were induced […] in healthy CB17/SCID mice by injecting HCC1954 cells into the right flank of 70 mice. Once the induced tumors were an average size of […], the mice were treated with compound a2-1 at 25 mg/kg, 50 mg/kg and 100 mg/kg. Controls of vehicle alone and Herceptin® at 10 mg/kg were utilized.

Another series relates to ErbB2. Description: Degradation of HSP90 client protein ErbB2 in SK-BR3, Western blotting. Conditions: Homo sapiens; for EC50: read-out: EC50, degradation of ErbB2. In kind it is cell-based. The text has this:
Thus, after 18 hrs treatment with the compounds, the whole cell protein lysates were obtained, protein concentrations were normalized and the concentration of ErbB2 was quantified by Western blotting (C. Chavany et al J. Biol. Chem. 271:4974-4977 (1996)).

A short description of series [1]: Maximum tolerated dose in healthy CB17/SCID mice. In kind it is in vivo. How it is done: Three healthy CB17/SCID mice were treated with compound 2a-1 at 25 mg/kg, 50 mg/kg and 100 mg/kg once daily for five consecutive days.
The next series relates to SK-BR-3 tumor cells. Description: Cytotoxicity, MTS assay, SK-BR-3. In kind it is cell-based. Conditions: Homo sapiens, 72 hours. On the procedure:
as §1, §2

Another series concerns the target T1, Aurora-A (Homo sapiens, UniProt O14965).
T1 construct: host or cells: Sf9 insect cells (baculovirus)
T1 sequence (O14965 1-403): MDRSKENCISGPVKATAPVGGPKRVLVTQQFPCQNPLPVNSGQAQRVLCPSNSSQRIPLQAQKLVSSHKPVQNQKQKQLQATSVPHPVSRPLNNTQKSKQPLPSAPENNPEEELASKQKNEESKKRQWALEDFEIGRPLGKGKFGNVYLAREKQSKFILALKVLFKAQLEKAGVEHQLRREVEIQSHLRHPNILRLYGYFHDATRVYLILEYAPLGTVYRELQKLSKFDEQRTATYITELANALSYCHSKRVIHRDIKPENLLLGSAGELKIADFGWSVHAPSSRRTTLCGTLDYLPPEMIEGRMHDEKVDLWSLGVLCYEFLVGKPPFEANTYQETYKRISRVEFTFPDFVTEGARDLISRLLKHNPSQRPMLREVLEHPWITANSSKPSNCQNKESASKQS
Nature of the series: Radiometric protein kinase assay, Aurora-A. In kind it is biochemical. To be noted: 1 μM ATP; read-out: Inhibitory activity (IC50:μM) Aurora-A. From the text: (§3) All protein kinases were expressed in Sf9 insect cells as human recombinant GST-fusion proteins or His-tagged proteins by means of the baculovirus expression system. Kinases were purified by affinity chromatography using either GSH-agarose (Sigma) or Ni-NTH-agarose (Qiagen). The purity of each kinase was checked by SDS-PAGE/silver staining and the identity of each kinase was verified by western blot analysis with kinase specific antibodies or by mass spectroscopy.
(§4) A radiometric protein kinase assay (^33PanQinase® Activity Assay) was used for measuring the kinase activity of the 24 protein kinases. All kinase assays were performed in 96-well FlashPlates™ from Perkin Elmer (Boston, Mass., USA) in a 50 μl reaction volume. The reaction cocktail was pipetted in 4 steps in the following order: • 20 μl of assay buffer • 5 μl of ATP solution (in H2O) • 5 μl of test compound (in 10% DMSO) • 10 μl of substrate/10 […] of enzyme solution (premixed)
(§5) The assay for all enzymes contained 60 mM HEPES-NaOH, pH 7.5, 3 mM MgCl2, 3 mM MnCl2, 3 μM Na-orthovanadate, 1.2 mM DTT, 50 μg/ml PEG20000, 1 μM [γ-^33P]-ATP (approx. 5×10^05 cpm per well).
(§6) For the 24 kinase assays, the following amounts of enzyme and substrate were used per well:
(§7) The reaction cocktails were incubated at 30° C. for 80 minutes. The reaction was stopped with 50 μl of 2% (v/v) H3PO4, plates were aspirated and washed two times with 200 μl of 0.9% (w/v) NaCl or 200 μl H2O. Incorporation of ^33Pi was determined with a microplate scintillation counter (Microbeta Trilux, Wallac).
(§8) The median value of the counts in column 1 (n=8) of each assay plate was defined as “low control”. This value reflects unspecific binding of radioactivity to the plate in the absence of a protein kinase but in the presence of the substrate. The median value of the counts in column 7 of each assay plate (n=8) was taken as the “high control”, i.e. full activity in the absence of any inhibitor. The difference between high and low control was taken as 100% activity.
(§9) As part of the data evaluation the low control value from a particular plate was subtracted from the high control value as well as from all 80 “compound values” of the corresponding plate. The residual activity (in %) for each well of a particular plate was calculated by using the following formula: Res. Activity (%)=100×[(cpm of compound−low control)/(high control−low control)]
(§10) The residual activities for each concentration and the compound IC50 values were calculated using Quattro Workflow V2.1.0.0 (Quattro Research GmbH, Munich, Germany; www.quattro-research.com). The model used was “Sigmoidal response (variable slope)” with parameters “top” fixed at 100% and “bottom” at 0%.

In the next series the test system is HER-2. Conditions: HER-2 degradation assay; cited from earlier work.
A further series concerns panel of 24 kinase. Nature of the series: Radiometric protein kinase assay (33PanQinase), panel of 24 kinases. The series is classed as biochemical, human. Conditions: for inhibition in a panel of 24 kinase: at 10 μM.
Source text: as §3
A radiometric protein kinase assay (^33PanQinase® Activity Assay) was used for measuring the kinase activity of the 24 protein kinases.
as §5, §7, §8, §9

The target of another series is T2, VEGF-R2 (Homo sapiens, UniProt P35968).
T2 construct: host or cells: Sf9 insect cells (baculovirus)
T2 sequence (P35968 20-1356): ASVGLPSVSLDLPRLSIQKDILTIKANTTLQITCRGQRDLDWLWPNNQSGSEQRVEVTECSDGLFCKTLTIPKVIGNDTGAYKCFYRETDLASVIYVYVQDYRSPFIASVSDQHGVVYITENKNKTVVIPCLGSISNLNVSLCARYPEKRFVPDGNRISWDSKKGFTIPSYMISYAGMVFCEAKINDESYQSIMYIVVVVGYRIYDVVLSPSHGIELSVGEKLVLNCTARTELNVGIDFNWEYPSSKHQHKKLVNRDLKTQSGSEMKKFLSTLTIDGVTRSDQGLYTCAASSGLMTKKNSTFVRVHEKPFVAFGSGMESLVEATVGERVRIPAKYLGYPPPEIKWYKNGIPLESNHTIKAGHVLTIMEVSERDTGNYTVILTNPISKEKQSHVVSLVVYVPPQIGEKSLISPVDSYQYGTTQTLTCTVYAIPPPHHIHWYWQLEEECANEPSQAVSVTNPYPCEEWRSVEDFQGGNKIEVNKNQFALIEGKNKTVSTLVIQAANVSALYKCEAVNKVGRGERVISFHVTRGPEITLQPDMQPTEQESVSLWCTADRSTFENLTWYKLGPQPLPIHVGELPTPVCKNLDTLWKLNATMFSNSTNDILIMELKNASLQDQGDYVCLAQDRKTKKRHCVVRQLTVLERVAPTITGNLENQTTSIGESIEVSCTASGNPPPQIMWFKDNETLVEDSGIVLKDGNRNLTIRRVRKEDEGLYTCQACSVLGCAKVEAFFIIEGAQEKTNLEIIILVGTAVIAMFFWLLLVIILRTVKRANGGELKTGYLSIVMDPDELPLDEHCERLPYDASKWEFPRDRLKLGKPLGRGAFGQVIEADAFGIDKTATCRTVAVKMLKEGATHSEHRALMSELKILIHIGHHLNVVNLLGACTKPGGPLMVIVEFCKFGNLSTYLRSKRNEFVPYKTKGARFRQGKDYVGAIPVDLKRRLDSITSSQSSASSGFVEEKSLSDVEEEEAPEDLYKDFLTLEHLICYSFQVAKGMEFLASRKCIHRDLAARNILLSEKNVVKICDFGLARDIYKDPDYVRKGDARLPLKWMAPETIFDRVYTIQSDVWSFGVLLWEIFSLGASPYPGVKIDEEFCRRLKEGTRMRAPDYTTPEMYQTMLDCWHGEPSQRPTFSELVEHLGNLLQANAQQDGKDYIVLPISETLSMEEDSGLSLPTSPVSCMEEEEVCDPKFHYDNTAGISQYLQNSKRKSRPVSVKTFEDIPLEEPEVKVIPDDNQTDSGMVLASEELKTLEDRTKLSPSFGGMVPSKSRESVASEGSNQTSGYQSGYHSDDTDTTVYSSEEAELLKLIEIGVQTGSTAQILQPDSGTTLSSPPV
Description: Radiometric protein kinase assay, VEGF-R2. The series is classed as biochemical. Conditions: 1 μM ATP; read-out: Inhibitory activity (IC50:μM) VEGF-R2.
Source text: as §3, §4, §5, §6, §7, §8, §9, §10

The test system of another series is tumor xenograft models. Conditions: in vivo; cited from earlier work.
For series [2] the following is noted: cited from earlier work.
Series [3] concerns the target T3, HSP90 (Homo sapiens, UniProt P07900). Description: HSP90 affinity, competition assay with geldanamycin. The series is classed as binding.
The target of series [4] is T3, HSP90. Conditions: reported; read-out: inhibitor of HSP90; cited from earlier work.

In the case of `O=C1OCC/C=C/CC/C=C/C(=N/OCC(=O)N2CCCCC2)Cc2c(Cl)c(O)cc(O)c21` [2a-1], the EC50 was 320 nM in the series on HCC1954 tumor cells; 26 nM in the series with ErbB2 (SK-BR-3, SK-BR3, 18 hrs treatment, Western blotting); 125 nM with SK-BR-3 tumor cells. The tumor size result in the series with HCC1954 cells (25 mg/kg, 50 mg/kg and 100 mg/kg) is recorded as “dose-dependent reduction in tumor size”. Besides, the “tumor size compared with Herceptin® at 10 mg/kg” value in the series on HCC1954 cells (even at the 25 mg/kg dose for three weeks) is “superior to those obtained in mice treated with Herceptin®”. The “re-growth of tumor after the last treatment” value with HCC1954 cells (mouse, in vivo) is “did not occur for three to seven days”. In [1] (25 mg/kg once daily for five consecutive days), the weight loss entry is reported as “did not show any weight loss”. Besides, the body weight loss entry in series [1] (50 mg/kg once daily for five consecutive days) is “slight, but acceptable body weight loss”; in [1] (100 mg/kg once daily for five consecutive days), “slight, but acceptable body weight loss”.

Consider `O=C1OCC/C=C/CC/C=C/C(=N/OCC(=O)N2CCCCC2)Cc2cc(O)cc(O)c21` [2a-13], for which the EC50 in the series with HCC1954 tumor cells was 220 nM; in the series with ErbB2 (SK-BR-3, 18 h), 12 nM; in the series on SK-BR-3 tumor cells, 120 nM.

Regarding `O=C1Cc2c(Cl)c(O)cc(O)c2C(=O)O[C@H](c2ccccc2)C/C=C/CCC(Cl)C1` (some centres unmarked) [A3], the IC50 on Aurora-A amounted to 12 µM.

Turning to `CCCCn1c(Cc2cc(OC)c(OC)c(OC)c2)nc2c(N)ncnc21` [PU3], the IC50 with HER-2 was 40000 nM.

`C[C@@H]1C[C@H]2O[C@@H]2/C=C\C=C\C(=O)Cc2c(Cl)c(O)cc(O)c2C(=O)O1` [Radicicol, radicicol]: the IC50 in the series on ErbB2 (SK-BR-3, 18 h, read-out: IC50, degradation of ErbB2) came out at 289 nM; at VEGF-R2, 49 µM. Further, the “IC50 in panel of 24 kinase assays (blank cells; summary in words)” value in the series with panel of 24 kinase (a blank represents an IC50 > 50 μM) is “no inhibition”. Moreover, in the series with panel of 24 kinase, the “inhibition in a panel of 24 kinase” value is “no significant activity”. Further, the “activity in tumor xenograft models” value in the series on tumor xenograft models is “inactive”. In series [2], the water solubility entry was “poorly water-soluble”.

As to `C[C@@H]1CC2O[C@@H]2CC/C=C/C(=O)Cc2c(Cl)c(O)cc(O)c2C(=O)O1` (some centres unmarked) [pochonin A], the IC50 at HSP90 [3] and at HSP90 [4] was 90 nM in each case. For the same compound, in the series with panel of 24 kinase, the “inhibition in a panel of 24 kinase” value is reported as “no significant activity”.
